ChEMBL document CHEMBL1201862, “PubChem BioAssay data set” (2004)
Calls of active or inactive are those of the source.

Legend:
[1] = Late stage assay provider results from the probe development effort to identify inhibitors of the Plasmodium falciparum M17 Leucine Aminopeptidase (M17LAP): radiolabel-based cell-based dose response assay to identify compounds that inhibit P. falciparum growth in RBCs Set 2.; assay type: functional
[2] = tested on: Vero; experiment: viability loss in Vero cells – cell-based, plate reader, cherry-pick samples, cytotoxicity control, dose response (AID 687020); assay type: functional; conditions: Chlorocebus sabaeus
[3] = target: Albumin (Bos taurus, UniProt P02769); experiment: Counterscreen for inhibitors of T-cell receptor (TCR)-CD3 interaction: Fluorescence-based biochemical high throughput dose response assay to identify inhibitors of T-cell receptor (TCR)-CD3 interaction using a TAMRA-labeled BSA probe.; assay type: functional
Chain of Albumin (P02769 whole entry): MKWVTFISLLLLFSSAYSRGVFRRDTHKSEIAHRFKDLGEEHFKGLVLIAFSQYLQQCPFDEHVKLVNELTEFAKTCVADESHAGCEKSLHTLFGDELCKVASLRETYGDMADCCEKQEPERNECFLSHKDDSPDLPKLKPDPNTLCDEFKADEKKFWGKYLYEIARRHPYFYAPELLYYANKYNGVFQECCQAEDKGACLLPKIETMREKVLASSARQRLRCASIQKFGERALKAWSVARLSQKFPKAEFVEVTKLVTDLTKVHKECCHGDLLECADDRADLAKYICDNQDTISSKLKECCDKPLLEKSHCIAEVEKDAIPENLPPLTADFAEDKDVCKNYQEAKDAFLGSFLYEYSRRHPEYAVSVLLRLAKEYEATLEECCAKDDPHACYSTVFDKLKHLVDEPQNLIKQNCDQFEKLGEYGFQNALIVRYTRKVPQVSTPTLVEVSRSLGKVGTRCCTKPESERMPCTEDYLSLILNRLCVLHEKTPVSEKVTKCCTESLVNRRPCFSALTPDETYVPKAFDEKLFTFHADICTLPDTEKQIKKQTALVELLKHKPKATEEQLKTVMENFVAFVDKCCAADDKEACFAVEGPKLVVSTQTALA

[4] = tested on: A549; experiment: viability loss in A549 cells – cell-based, plate reader, cherry-pick samples, cytotoxicity control, dose response (AID 687028); assay type: functional; conditions: Homo sapiens
[5] = HGIII-sPLA2 enzyme inhibition potency – biochemical, QFRET, IC50, dose response (AID 743457);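 note: green fluorescence rise as the enzyme cleaves BODIPY PC-A2 in liposomes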
[6] = target: Cytochrome P450 2D6 (Homo sapiens, UniProt P10635);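 note: CYP2D6 member of a cytochrome P450 panel assay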
Chain of Cytochrome P450 2D6 (P10635 whole entry): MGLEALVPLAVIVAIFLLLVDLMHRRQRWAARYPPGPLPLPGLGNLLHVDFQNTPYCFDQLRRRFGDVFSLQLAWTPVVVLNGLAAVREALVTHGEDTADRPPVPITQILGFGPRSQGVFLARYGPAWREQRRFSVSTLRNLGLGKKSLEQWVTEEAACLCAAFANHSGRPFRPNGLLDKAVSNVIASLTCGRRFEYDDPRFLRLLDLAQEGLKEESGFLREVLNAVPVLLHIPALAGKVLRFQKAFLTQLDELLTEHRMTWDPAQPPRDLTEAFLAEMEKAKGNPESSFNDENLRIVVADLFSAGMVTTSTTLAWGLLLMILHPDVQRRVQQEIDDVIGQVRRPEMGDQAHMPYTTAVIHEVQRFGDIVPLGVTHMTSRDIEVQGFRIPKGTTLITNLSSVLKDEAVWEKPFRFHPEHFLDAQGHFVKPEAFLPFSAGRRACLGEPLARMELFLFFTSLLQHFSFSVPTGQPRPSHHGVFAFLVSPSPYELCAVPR

[7] = target: Cytochrome P450 3A4 (Homo sapiens, UniProt P08684);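 note: CYP3A4 tested as one member of a cytochrome P450 panel screen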
Chain of Cytochrome P450 3A4 (P08684 whole entry): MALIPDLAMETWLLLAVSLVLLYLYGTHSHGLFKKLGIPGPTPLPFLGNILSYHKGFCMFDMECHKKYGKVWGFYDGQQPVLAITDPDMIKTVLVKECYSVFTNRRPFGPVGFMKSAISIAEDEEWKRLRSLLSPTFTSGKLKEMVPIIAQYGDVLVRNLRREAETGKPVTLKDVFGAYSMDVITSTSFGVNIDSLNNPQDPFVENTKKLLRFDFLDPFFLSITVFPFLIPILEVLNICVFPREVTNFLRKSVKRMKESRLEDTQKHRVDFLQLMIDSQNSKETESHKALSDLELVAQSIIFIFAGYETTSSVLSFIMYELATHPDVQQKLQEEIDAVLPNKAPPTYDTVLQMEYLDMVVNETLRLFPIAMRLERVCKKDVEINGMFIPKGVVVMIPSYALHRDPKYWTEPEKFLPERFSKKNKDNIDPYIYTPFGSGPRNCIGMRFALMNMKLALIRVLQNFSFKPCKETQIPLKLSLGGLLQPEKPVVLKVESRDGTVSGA

[8] = target: Cytochrome P450 2C9 (Homo sapiens, UniProt P11712)
Chain of Cytochrome P450 2C9 (P11712 whole entry): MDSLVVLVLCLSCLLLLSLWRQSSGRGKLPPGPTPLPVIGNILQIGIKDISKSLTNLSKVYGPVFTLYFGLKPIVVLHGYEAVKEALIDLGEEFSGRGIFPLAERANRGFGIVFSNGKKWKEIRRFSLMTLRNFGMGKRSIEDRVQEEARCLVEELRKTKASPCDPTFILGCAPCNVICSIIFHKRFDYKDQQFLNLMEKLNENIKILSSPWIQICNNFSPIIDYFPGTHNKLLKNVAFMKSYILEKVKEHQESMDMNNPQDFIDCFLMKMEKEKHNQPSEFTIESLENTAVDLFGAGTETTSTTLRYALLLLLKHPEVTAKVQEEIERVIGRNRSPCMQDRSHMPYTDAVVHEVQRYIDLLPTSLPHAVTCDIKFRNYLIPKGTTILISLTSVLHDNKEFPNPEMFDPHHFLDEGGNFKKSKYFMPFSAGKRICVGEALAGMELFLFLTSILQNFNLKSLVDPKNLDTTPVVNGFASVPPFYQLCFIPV

[9] = target: DNA dC->dU-editing enzyme APOBEC-3A (Homo sapiens, UniProt P31941); experiment: Dose Response confirmation of small molecule APOBEC3A DNA Deaminase Inhibitors via a fluorescence-based single-stranded DNA deaminase assay. [Related pubchem assays (depositor defined):AID493011, AID493024]; assay type: functional
Chain of DNA dC->dU-editing enzyme APOBEC-3A (P31941 whole entry): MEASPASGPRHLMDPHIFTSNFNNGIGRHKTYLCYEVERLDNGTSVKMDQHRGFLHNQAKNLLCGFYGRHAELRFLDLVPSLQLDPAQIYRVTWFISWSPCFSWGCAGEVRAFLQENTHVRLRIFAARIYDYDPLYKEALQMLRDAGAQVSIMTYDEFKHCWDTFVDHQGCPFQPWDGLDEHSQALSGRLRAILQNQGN

[10] = target: Histone-lysine N-methyltransferase NSD2 (Homo sapiens, UniProt O96028); assay type: biochemical
Chain of Histone-lysine N-methyltransferase NSD2 (O96028 whole entry): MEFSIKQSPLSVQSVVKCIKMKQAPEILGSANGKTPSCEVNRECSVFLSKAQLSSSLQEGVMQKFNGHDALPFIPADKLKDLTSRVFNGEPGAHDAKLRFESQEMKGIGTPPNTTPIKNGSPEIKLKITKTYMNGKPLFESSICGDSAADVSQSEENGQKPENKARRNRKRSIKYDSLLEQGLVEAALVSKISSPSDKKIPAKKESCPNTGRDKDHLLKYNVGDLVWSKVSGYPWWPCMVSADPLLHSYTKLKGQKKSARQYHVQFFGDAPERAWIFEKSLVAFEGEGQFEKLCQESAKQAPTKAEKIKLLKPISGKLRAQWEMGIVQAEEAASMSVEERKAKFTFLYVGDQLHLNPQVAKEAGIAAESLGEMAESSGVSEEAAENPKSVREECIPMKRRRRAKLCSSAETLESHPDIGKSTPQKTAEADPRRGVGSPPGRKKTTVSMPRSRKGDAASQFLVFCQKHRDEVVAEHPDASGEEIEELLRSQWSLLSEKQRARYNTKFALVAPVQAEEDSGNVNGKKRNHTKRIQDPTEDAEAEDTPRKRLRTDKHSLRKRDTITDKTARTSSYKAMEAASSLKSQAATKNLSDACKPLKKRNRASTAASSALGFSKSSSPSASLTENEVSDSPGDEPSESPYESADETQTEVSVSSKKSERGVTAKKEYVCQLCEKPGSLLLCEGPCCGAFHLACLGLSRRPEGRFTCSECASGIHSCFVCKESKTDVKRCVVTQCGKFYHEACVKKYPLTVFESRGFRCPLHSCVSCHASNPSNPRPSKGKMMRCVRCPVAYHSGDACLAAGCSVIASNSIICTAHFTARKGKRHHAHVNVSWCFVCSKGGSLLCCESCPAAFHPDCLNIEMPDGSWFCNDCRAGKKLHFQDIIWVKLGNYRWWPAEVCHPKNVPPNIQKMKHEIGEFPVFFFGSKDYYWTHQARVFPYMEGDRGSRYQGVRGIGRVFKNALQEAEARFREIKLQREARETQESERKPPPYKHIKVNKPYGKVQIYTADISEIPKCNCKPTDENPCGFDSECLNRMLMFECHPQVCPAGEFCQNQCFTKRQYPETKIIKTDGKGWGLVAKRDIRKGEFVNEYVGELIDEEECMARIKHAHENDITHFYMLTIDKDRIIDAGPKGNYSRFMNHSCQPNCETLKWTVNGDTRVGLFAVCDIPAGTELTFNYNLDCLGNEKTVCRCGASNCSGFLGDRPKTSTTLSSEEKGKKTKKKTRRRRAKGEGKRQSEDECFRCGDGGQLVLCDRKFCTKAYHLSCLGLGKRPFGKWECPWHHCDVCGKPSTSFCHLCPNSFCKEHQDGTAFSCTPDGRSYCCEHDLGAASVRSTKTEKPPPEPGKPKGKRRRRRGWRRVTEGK

[11] = target: DNA dC->dU-editing enzyme APOBEC-3G (Homo sapiens, UniProt Q9HC16); assay type: functional;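 note: Dose-response counterscreen measuring inhibition of APOBEC3G DNA deaminase activity, run while confirming APOBEC3A inhibitors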
Chain of DNA dC->dU-editing enzyme APOBEC-3G (Q9HC16 whole entry): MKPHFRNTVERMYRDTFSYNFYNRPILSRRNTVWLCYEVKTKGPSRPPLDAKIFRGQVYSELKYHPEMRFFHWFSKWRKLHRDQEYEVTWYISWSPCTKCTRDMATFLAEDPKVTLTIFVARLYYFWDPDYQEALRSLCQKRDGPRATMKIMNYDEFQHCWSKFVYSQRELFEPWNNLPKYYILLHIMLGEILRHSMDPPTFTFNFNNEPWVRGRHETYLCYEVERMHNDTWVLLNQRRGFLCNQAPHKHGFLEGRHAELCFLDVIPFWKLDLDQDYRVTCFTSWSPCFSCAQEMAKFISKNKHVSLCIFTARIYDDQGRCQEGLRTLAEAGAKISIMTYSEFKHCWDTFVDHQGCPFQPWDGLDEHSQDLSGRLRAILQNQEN

[12] = target: Beta-galactosidase (Escherichia coli, UniProt Q8VNN2); experiment: Dose response counterscreen for EBI2 assay utilizing the enzyme, b-galactosidase.; assay type: functional
[13] = Luminescence Cell-Based Dose Retest to Confirm Inhibitors of Cancer Stem Cells. [Related pubchem assays (depositor defined):AID2717, AID2721]; assay type: functional; conditions: Homo sapiens
[14] = target: Fructose-bisphosphate aldolase (Mycobacterium tuberculosis, UniProt P9WQA3); experiment: Fluorescence-based biochemical high throughput dose response assay for inhibitors of the fructose-bisphosphate aldolase (FBA) of M. tuberculosis.; assay type: functional
Chain of Fructose-bisphosphate aldolase (P9WQA3 whole entry): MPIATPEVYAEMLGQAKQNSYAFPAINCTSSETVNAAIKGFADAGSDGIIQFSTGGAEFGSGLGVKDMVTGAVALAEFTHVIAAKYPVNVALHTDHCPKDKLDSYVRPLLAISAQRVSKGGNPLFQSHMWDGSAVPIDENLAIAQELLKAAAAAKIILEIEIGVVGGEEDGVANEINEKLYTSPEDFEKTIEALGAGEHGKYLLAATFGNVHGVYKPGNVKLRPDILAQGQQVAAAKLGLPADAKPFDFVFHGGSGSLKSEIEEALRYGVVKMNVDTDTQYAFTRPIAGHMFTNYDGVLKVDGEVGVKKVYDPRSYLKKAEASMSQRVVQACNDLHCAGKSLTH

[15] = viability loss of HMLE_sh_eGFP cells – cell-based, luminescence, counter-screen for HMLE_sh_ECad selective toxicity project, dose response (AID 463074); assay type: functional, Homo sapiens;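 note: HMLE human mammary epithelial cells expressing control shRNA against eGFP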
[16] = target: Matrix metalloproteinase-14 (Homo sapiens, UniProt P50281); experiment: Dose Response confirmation of uHTS hits for a small molecule inhibitors of MT1-MMP activation in a fluorescence assay set 1.; assay type: functional
[17] = viability of PTEN-deleted HCT116 cells – cell-based, HCT116 PTEN knockout, dose response (AID 1047); assay type: functional;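 note: HCT116 colon tumor cells with PTEN knocked out; cells exposed to compound for 60 hours before readout; potency for loss of cell viability measured by luminescence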
[18] = tested on: Vero; experiment: cells; assay type: functional; conditions: Chlorocebus sabaeus
[19] = viability of HCT116 lacking mutant beta-catenin – cell-based, human colon tumor, dose response (AID 1045); assay type: functional;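 note: HCT116 colon tumor cells with beta catenin knocked out; cells exposed to compound for 60 hours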
[20] = target: Photoreceptor-specific nuclear receptor (Homo sapiens, UniProt Q9Y5X4); assay type: functional, cell-based;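 note: CHO-S cells with Gal4-NCOR and VP16-NR2E3 two-hybrid luciferase reporter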
Chain of Photoreceptor-specific nuclear receptor (Q9Y5X4 whole entry, the tested form may be a part): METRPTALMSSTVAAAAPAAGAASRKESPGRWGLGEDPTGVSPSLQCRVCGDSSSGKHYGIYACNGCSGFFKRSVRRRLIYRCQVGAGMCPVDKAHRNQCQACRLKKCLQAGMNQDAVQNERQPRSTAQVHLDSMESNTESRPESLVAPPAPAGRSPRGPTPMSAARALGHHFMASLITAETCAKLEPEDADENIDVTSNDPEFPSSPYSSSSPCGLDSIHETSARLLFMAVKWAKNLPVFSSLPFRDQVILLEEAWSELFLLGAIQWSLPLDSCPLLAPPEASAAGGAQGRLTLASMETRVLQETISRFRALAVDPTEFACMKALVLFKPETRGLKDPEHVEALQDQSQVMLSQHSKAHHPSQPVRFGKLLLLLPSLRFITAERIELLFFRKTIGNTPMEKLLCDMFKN

[21] = target: SWI/SNF-related matrix-associated actin-dependent regulator of chromatin subfamily A member 2 (Homo sapiens, UniProt P51531); experiment: Luminescence-based cell-based high throughput dose response assay to identify activators of the function of SWI/SNF related, matrix associated, actin dependent regulator of chromatin, subfamily a, member 2 (SMARCA2, BRM).; assay type: functional
[22] = Counterscreen for inhibitors of Trypanosoma brucei methionyl tRNA synthetase (MetRS): Luminescence-based cell-based high throughput dose response assay to identify compounds that are cytotoxic to Jurkat human T lymphocyte cells.; assay type: functional
[23] = target: T1, Methionyl-tRNA synthetase, putative (Trypanosoma brucei brucei, UniProt Q38C91); assay type: functional, Trypanosoma brucei brucei strain 927/4 GUTat10.1
T1 sequence (Q38C91 whole entry): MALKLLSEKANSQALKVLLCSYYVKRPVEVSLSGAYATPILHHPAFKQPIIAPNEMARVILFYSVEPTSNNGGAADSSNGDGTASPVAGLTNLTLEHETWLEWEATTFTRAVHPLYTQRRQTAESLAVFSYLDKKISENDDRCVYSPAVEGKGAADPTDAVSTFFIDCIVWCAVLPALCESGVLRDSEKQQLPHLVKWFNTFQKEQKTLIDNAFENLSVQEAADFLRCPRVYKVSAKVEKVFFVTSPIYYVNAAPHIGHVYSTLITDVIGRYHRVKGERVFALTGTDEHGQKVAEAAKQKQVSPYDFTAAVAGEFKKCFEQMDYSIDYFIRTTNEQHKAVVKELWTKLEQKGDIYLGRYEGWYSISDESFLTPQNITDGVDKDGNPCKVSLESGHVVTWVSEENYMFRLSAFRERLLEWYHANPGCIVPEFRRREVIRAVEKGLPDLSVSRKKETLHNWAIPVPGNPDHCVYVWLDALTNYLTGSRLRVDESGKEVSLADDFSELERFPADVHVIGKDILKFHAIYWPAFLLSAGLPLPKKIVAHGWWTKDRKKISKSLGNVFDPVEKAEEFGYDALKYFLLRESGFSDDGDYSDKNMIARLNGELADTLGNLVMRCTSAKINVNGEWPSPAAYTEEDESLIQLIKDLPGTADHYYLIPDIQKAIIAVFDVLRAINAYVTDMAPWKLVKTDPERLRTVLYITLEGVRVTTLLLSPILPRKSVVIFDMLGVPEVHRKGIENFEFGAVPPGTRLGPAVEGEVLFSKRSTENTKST

[24] = target: T1, Methionyl-tRNA synthetase, putative; assay type: functional, Trypanosoma brucei brucei strain 927/4 GUTat10.1; remark: listed apart in the source
[25] = Counterscreen for activators of the function of SWI/SNF related, matrix associated, actin dependent regulator of chromatin, subfamily a, member 2 (SMARCA2, BRM): Luminescence-based cell-based high throughput dose response assay to identify non-selective compounds using the VP16 reporter assay.; assay type: functional

**Q.** For CCCCc1ccc(CC(=O)NO)cc1, which IC50 [1] is on record?
**A.** Its IC50 is 4.3 µM (active).

**Q.** What does the source list for O=C(NNC(=O)c1ccccc1O)c1ccccc1O?
**A.** AC50 [2]: 1.05 µM (active); IC50 [3]: > 93.9 µM (inactive); AC50 [4]: 2.46 µM (active)

**Q.** With S=C(Nc1ccccc1)Nc1nccs1 as the molecule, how does the IC50 [5] read?
**A.** The IC50 was > 122 µM (inactive).

**Q.** What about the AC50 [6] of the same molecule?
**A.** Its AC50 is 31.6 µM (inconclusive).

**Q.** What about the AC50 [7] of the same molecule?
**A.** Its AC50 is 15.8 µM (inconclusive).

**Q.** What about the AC50 [8] of the same molecule?
**A.** Its AC50 is 20 µM (inconclusive).

**Q.** Which results are given for Cc1cc(/C=C2\C(=O)NC(=O)N(c3cccc(F)c3)C2=O)c(C)n1-c1cc(C(=O)O)cc(C(=O)O)c1?
**A.** IC50 [9]: 16.8 µM (active); AC50 [10]: > 20 µM (inactive); IC50 [11]: 27.4 µM (active)

**Q.** What does the source list for COC(=O)c1cc(=O)n(Cc2ccc(F)cc2)/c(=N/c2ccccc2)s1?
**A.** IC50 [12]: > 80 µM (inactive); AC50 [13]: 4.82 µM (active)

**Q.** Which IC50 [14] does the source give for COC1=Nc2ccccc2N2CCN=C12 here?
**A.** The IC50 was 2.07 µM (active).

**Q.** With O=C(NNc1c2ccccc2nc2ccccc12)c1cc2ccccc2cc1O as the molecule, how does the AC50 [15] read?
**A.** The AC50 was 28.2 µM (active).

**Q.** What about the IC50 [16] of the same molecule?
**A.** Its IC50 is 24.4 µM (inactive).

**Q.** What about the EC50 [17] of the same molecule?
**A.** The EC50 was 6.4 µM (active).

**Q.** And the CC50 [18]?
**A.** Its CC50 is 2.61 µM (active).

**Q.** What about the AC50 [13] of the same molecule?
**A.** Its AC50 is 27 µM (active).

**Q.** What about the EC50 [19] of the same molecule?
**A.** The EC50 was 7.12 µM (active).

**Q.** What does the source list for Cc1cccc(OCCCC(=O)Nc2nc3ccccc3[nH]2)c1?
**A.** IC50 [20]: 2.88 µM (active); EC50 [21]: > 91.1 µM (inactive); IC50 [22]: 29.6 µM (inactive); IC50 [23]: 4.34 µM (active); IC50 [24]: 39.5 µM (inactive); EC50 [25]: > 91.1 µM (inactive)
